According to patent publication US9505786B2, “Substituted annulated triazines and use thereof” (BAYER INTELLECTUAL PROPERTY GMBH, priority 2012, dated 2016):
Read-outs that look alike come from different tables or passages of the source.

Legend:
[1] = system: aorta rings; assay: Vasorelaxant effect in vitro (phenylephrine-contracted aorta rings); conditions: rabbit aorta rings, organ bath, phenylephrine contraction, read-out: IC50 (concentration needed to reduce the phenylephrine contraction by 50%)
Experimental: B-1. Vasorelaxant Effect In Vitro
Rabbits are stunned by a blow to the neck and exsanguinated. The aorta is removed, freed from adhering tissue and divided into rings of a width of 1.5 mm. The rings are placed individually under an initial tension in 5 ml organ baths with Krebs-Henseleit solution which is at 37° C., is gassed with carbogen and has the following composition (in each case mM): sodium chloride: 119; potassium chloride: 4.8; calcium chloride dihydrate: 1; magnesium sulphate heptahydrate: 1.4; potassium dihydrogenphosphate: 1.2; sodium bicarbonate: 25; glucose: 10. The contractile force is determined with Statham UC2 cells, amplified and digitalized using A/D transducers (DAS-1802 HC, Keithley Instruments Munich), and recorded in parallel on linear recorders.
To produce a contraction, phenylephrine is added to the bath cumulatively in increasing concentration. After several control cycles, the substance to be investigated is added in each further run in increasing dosage in each case, and the height of the contraction achieved is compared with the height of the contraction reached in the last preceding run. This is used to calculate the concentration needed to reduce the magnitude of the control value by 50% (IC50 value). The standard administration volume is 5 μl; the DMSO content in the bath solution corresponds to 0.1%.

[2] = system: recombinant guanylate cyclase reporter cell line; assay: Effect on a recombinant guanylate cyclase reporter cell line; format: cell-based
Experimental: B-2. Effect on a Recombinant Guanylate Cyclase Reporter Cell Line
The cellular activity of the compounds according to the invention is determined using a recombinant guanylate cyclase reporter cell line, as described in F. Wunder et al., Anal. Biochem. 339, 104-112 (2005).

[3] = target: human phosphodiesterase 5 (PDE 5) (Homo sapiens (Human), UniProt O76074); assay: Inhibition of human phosphodiesterase 5 (PDE 5), SPA assay; format: biochemical; conditions: PDE 5 preparation from human platelets, [8-3H] cGMP substrate
Experimental: B-6. Inhibition of Human Phosphodiesterase 5 (PDE 5)
PDE 5 preparations are obtained from human platelets by disruption (Microfluidizer®, 800 bar, 3 passes), followed by centrifugation (75 000 g, 60 min, 4° C.) and ion exchange chromatography of the supernatant on a Mono Q 10/10 column (linear sodium chloride gradient, elution with a 0.2-0.3M solution of sodium chloride in buffer (20 mM Hepes pH 7.2, 2 mM magnesium chloride). Fractions having PDE 5 activity are combined (PDE 5 preparation) and stored at −80° C.
To determine their in vitro action on human PDE 5, the test substances are dissolved in 100% DMSO and serially diluted. Typically, dilution series (1:3) from 200 μM to 0.091 μM are prepared (resulting final concentrations in the test: 4 μM to 0.0018 μM). In each case 2 μl of the diluted substance solutions are placed into the wells of microtitre plates (Isoplate-96/200W; Perkin Elmer). Subsequently, 50 μl of a dilution of the above-described PDE 5 preparation are added. The dilution of the PDE 5 preparation is chosen such that during the later incubation less than 70% of the substrate are converted (typical dilution: 1:100; dilution buffer: 50 mM Tris/hydrochloric acid pH 7.5, 8.3 mM magnesium chloride, 1.7 mM EDTA, 0.2% BSA). The substrate, [8-^3H] cyclic guanosine-3′,5′-monophosphate (1 μCi/μl; Perkin Elmer) is diluted 1:2000 with assay buffer (50 mM tris/hydrochloric acid pH 7.5, 8.3 mM magnesium chloride, 1.7 mM EDTA) to a concentration of 0.0005 μCi/μl. By addition of 50 μl (0.025 μCi) of the diluted substrate, the enzyme reaction is finally started. The test mixtures are incubated at room temperature for 60 min and the reaction is stopped by adding 25 μl of a suspension of 18 mg/ml yttrium scintillation proximity beads in water (phosphodiesterase beads for SPA assays, RPNQ 0150, Perkin Elmer). The microtitre plates are sealed with a film and left to stand at room temperature for 60 min. Subsequently, the plates are analysed for 30 s per well in a Microbeta scintillation counter (Perkin Elmer). IC50 values are determined using the graphic plot of the substance concentration against percentage PDE 5 inhibition.

Row | SMILES | IC50 ([1]; Oryctolagus cuniculus) | MEC (minimum effective concentration) [2] | IC50 [3] | IC50 [1]
1 | CC1(CC2CC2)C(=O)Nc2nc(-c3nn(Cc4ccccc4F)c4ncc(F)cc34)nnc21 (racemic) [Example 5, 7-(Cyclopropylmethyl)-3-[5-fluoro-1-(2-fluorobenzyl)-1H-pyrazolo[3,4-b]pyridin-3-yl]-7-methyl-5,7-dihydro-6H-pyrrolo[2,3-e][1,2,4]triazin-6-one (racemate)] | 137 nM | 100 nM | 260 nM | –
2 | CC1(COCc2ccccc2)C(=O)Nc2nc(-c3nn(Cc4ccccc4F)c4ncc(F)cc34)nnc21 (racemic) [Example 6, 7-[(Benzyloxy)methyl]-3-[5-fluoro-1-(2-fluorobenzyl)-1H-pyrazolo[3,4-b]pyridin-3-yl]-7-methyl-5,7-dihydro-6H-pyrrolo[2,3-e][1,2,4]triazin-6-one (racemate)] | 246 nM | 100 nM | 1100 nM | –
3 | CCC1(C)C(=O)Nc2nc(-c3nn(Cc4ccccc4F)c4ncc(F)cc34)nnc21 (racemic) [Example 7, 7-Ethyl-3-[5-fluoro-1-(2-fluorobenzyl)-1H-pyrazolo[3,4-b]pyridin-3-yl]-7-methyl-5,7-dihydro-6H-pyrrolo[2,3-e][1,2,4]triazin-6-one (racemate)] | 41 nM | 30 nM | 340 nM | –
4 | C=CCC1(C)C(=O)Nc2nc(-c3nn(Cc4ccccc4F)c4ncccc34)nnc21 (racemic) [Example 28, (rac) 7-Allyl-3-[1-(2-fluorobenzyl)-1H-pyrazolo[3,4-b]pyridin-3-yl]-7-methyl-5,7-dihydro-6H-pyrrolo[2,3-e][1,2,4]triazin-6-one] | 209 nM | 30 nM | 310 nM | –
5 | CC1(c2nncs2)C(=O)Nc2nc(-c3nn(Cc4ccccc4F)c4ncccc34)ncc21 (racemic) [Example 34, (rac) 2-[1-(2-Fluorobenzyl)-1H-pyrazolo[3,4-b]pyridin-3-yl]-5-methyl-5-(1,3,4-thiadiazol-2-yl)-5,7-dihydro-6H-pyrrolo[2,3-d]pyrimidin-6-one] | 218 nM | 30 nM | 1200 nM | –
6 | CCOC(=O)C1(C)C(=O)Nc2nc(-c3nn(Cc4ccccc4F)c4ncccc34)nc(I)c21 (racemic) [Example 43, (rac) Ethyl 2-[1-(2-fluorobenzyl)-1H-pyrazolo[3,4-b]pyridin-3-yl]-4-iodo-5-methyl-6-oxo-6,7-dihydro-5H-pyrrolo[2,3-d]pyrimidine-5-carboxylate] | 968 nM | 100 nM | 1750 nM | –
7 | C=CCC1(C)C(=O)Nc2nc(-c3nn(Cc4ccccc4F)c4ncc(F)cc34)nnc21 (racemic) [Example 51, (rac) 7-Allyl-3-[5-fluoro-1-(2-fluorobenzyl)-1H-pyrazolo[3,4-b]pyridin-3-yl]-7-methyl-5,7-dihydro-6H-pyrrolo[2,3-e][1,2,4]triazin-6-one] | 413 nM | 30 nM | 140 nM | –
8 | CC1(CC2CC2)C(=O)Nc2nc(-c3nn(Cc4ccccc4F)c4ncc(F)cc34)nnc21 (single isomer, unassigned) [Example 5-1, 7-(Cyclopropylmethyl)-3-[5-fluoro-1-(2-fluorobenzyl)-1H-pyrazolo[3,4-b]pyridin-3-yl]-7-methyl-5,7-dihydro-6H-pyrrolo[2,3-e][1,2,4]triazin-6-one] | – | – | 350 nM | 321 nM
9 | CC1(CC2CC2)C(=O)Nc2nc(-c3nn(Cc4ccccc4F)c4ncc(F)cc34)nnc21 (single isomer, unassigned) [Example 5-2, 7-(Cyclopropylmethyl)-3-[5-fluoro-1-(2-fluorobenzyl)-1H-pyrazolo[3,4-b]pyridin-3-yl]-7-methyl-5,7-dihydro-6H-pyrrolo[2,3-e][1,2,4]triazin-6-one] | – | – | 250 nM | 661 nM
10 | CCC1(C)C(=O)Nc2nc(-c3nn(Cc4ccccc4F)c4ncc(F)cc34)nnc21 (single isomer, unassigned) [Example 7-1, 7-Ethyl-3-[5-fluoro-1-(2-fluorobenzyl)-1H-pyrazolo[3,4-b]pyridin-3-yl]-7-methyl-5,7-dihydro-6H-pyrrolo[2,3-e][1,2,4]triazin-6-one] | – | – | 200 nM | 59 nM
11 | CCC1(C)C(=O)Nc2nc(-c3nn(Cc4ccccc4F)c4ncc(F)cc34)nnc21 (single isomer, unassigned) [Example 7-2, 7-Ethyl-3-[5-fluoro-1-(2-fluorobenzyl)-1H-pyrazolo[3,4-b]pyridin-3-yl]-7-methyl-5,7-dihydro-6H-pyrrolo[2,3-e][1,2,4]triazin-6-one] | – | – | 350 nM | 185 nM
12 | NC1(C(F)(F)F)C(=O)Nc2nc(-c3nn(Cc4ccccc4F)c4ncccc34)ncc21 (stereo not shown) [Example 1, 5-Amino-2-[1-(2-fluorobenzyl)-1H-pyrazolo[3,4-b]pyridin-3-yl]-5-(trifluoromethyl)-5,7-dihydro-6H-pyrrolo[2,3-d]pyrimidin-6-one] | 37 nM | 30 nM | 1200 nM | –
13 | O=C1Nc2nc(-c3nn(Cc4ccccc4F)c4ncccc34)ncc2C1(O)C(F)(F)C(F)(F)F (stereo not shown) [Example 3, 2-[1-(2-Fluorobenzyl)-1H-pyrazolo[3,4-b]pyridin-3-yl]-5-hydroxy-5-(pentafluoroethyl)-5,7-dihydro-6H-pyrrolo[2,3-d]pyrimidin-6-one] | 266 nM | 30 nM | 2400 nM | –
14 | NC1(C(F)(F)C(F)(F)F)C(=O)Nc2nc(-c3nn(Cc4ccccc4F)c4ncccc34)ncc21 (stereo not shown) [Example 4, 5-Amino-2-[1-(2-fluorobenzyl)-1H-pyrazolo[3,4-b]pyridin-3-yl]-5-(pentafluoroethyl)-5,7-dihydro-6H-pyrrolo[2,3-d]pyrimidin-6-one] | 215 nM | 100 nM | 1300 nM | –
15 | CCOC(=O)C#Cc1nc(-c2nn(Cc3ccccc3F)c3ncccc23)nc2c1C(C)(C)C(=O)N2 [Example 53, Ethyl 3-{2-[1-(2-fluorobenzyl)-1H-pyrazolo[3,4-b]pyridin-3-yl]-5,5-dimethyl-6-oxo-6,7-dihydro-5H-pyrrolo[2,3-d]pyrimidin-4-yl}prop-2-ynoate] | – | 100 nM | 41 nM | –
16 | CC1(C)C(=O)Nc2nc(-c3nn(Cc4ccccc4F)c4ncc(F)cc34)nc(CN3CCCC3=O)c21 [Example 54, 2-[5-Fluoro-1-(2-fluorobenzyl)-1H-pyrazolo[3,4-b]pyridin-3-yl]-5,5-dimethyl-4-[(2-oxopyrrolidin-1-yl)methyl]-5,7-dihydro-6H-pyrrolo[2,3-d]pyrimidin-6-one] | – | 100 nM | 145 nM | –
17 | CC1(C)C(=O)Nc2nc(-c3nn(Cc4ccccc4F)c4ncc(F)cc34)nc(CNS(=O)(=O)C3CC3)c21 [Example 55, N-({2-[5-Fluoro-1-(2-fluorobenzyl)-1H-pyrazolo[3,4-b]pyridin-3-yl]-5,5-dimethyl-6-oxo-6,7-dihydro-5H-pyrrolo[2,3-d]pyrimidin-4-yl}methyl)cyclopropanesulphonamide] | – | 30 nM | 190 nM | –
18 | CC1(C)C(=O)Nc2nc(-c3nn(Cc4ccccc4F)c4ncccc34)nc(CC(N)=O)c21 [Example 61, 2-{2-[1-(2-Fluorobenzyl)-1H-pyrazolo[3,4-b]pyridin-3-yl]-5,5-dimethyl-6-oxo-6,7-dihydro-5H-pyrrolo[2,3-d]pyrimidin-4-yl}acetamide] | – | 30 nM | 15 nM | –
